These are literature values, as cited in patent publication US20110081780A1, “AQUEOUS DISPERSION FOR CHEMICAL MECHANICAL POLISHING AND CHEMICAL MECHANICAL POLISHING METHOD” (JSR CORPORATION, priority 2008, published 2011).

A word on the pKa: it is the pH at which an ionisable group is half protonated.

For the first data set the following is noted: 25° C.; second carboxyl group if two carboxyl groups, third if three or more.
Regarding `O=C(O)[C@@H]1CCCCC[C@H]1C(=O)O` (relative stereo) [1,2-Cycloheptanedicarboxylic acid (trans)], the pKa was 6.18.
On to `O=C(O)[C@@H]1CCCCCC[C@H]1C(=O)O` (relative stereo) [1,2-Cyclooctanedicarboxylic acid (trans)], for which the pKa is reported as 6.24.
`O=C(O)[C@H]1CCCCC[C@H]1C(=O)O` [1,2-Cycloheptanedicarboxylic acid (cis)]: the pKa was 7.60.
Take `O=C(O)[C@H]1CCCCCC[C@H]1C(=O)O` [1,2-Cyclooctanedicarboxylic acid (cis)]: the pKa was 7.34.
`CCC(CC)(C(=O)O)C(=O)O` [2,2-Diethylmalonic acid]: the pKa is reported as 7.42.
For the compound `CC(C)C(C(=O)O)(C(=O)O)C(C)C` [2,2-Diisopropylmalonic acid], the pKa is recorded as 8.85.
Regarding `CC(C)(C)C(C(=O)O)C(C(=O)O)C(C)(C)C` (stereo not drawn) [2,3-Di-t-butylsuccinic acid], the pKa is 10.26.
Turning to `CCC(C(=O)O)C(CC)C(=O)O` (stereo not drawn) [2,3-Diethylsuccinic acid], the pKa was 6.46.
`CC(C(=O)O)C(C)C(=O)O` (stereo not drawn) [2,3-Dimethylsuccinic acid]: the pKa is given as 6.00.
As for `CCC(CC)C(CC)(CCC(=O)O)C(=O)O` (stereo not drawn) [2-Ethyl-2-(1-ethylpropyl)glutaric acid], the pKa was 7.31.
As to `CCC(C)(C(=O)O)C(=O)O` [2-Ethyl-2-methylmalonic acid], the pKa was 6.55.
With `CCC(C(=O)O)C(C)C(=O)O` (stereo not drawn) [2-Ethyl-3-methylsuccinic acid], the pKa is given as 6.10.
For the compound `CCC(C(=O)O)C(=O)O` [2-Ethylmalonic acid], the pKa was 5.81.
For `CC(C)C(C(=O)O)C(=O)O` [2-Isopropylmalonic acid], the pKa is on record as 5.88.
On to `CC1CCCCC1(CC(=O)O)CC(=O)O` (stereo not drawn) [2-Methylcyclohexyl-1,1-diacetic acid], for which the pKa is given as 6.89.
As to `CC(C(=O)O)C(=O)O` [2-Methylmalonic acid], the pKa is 5.76.
As for `CCC(CC)(CC(=O)O)CC(=O)O` [3,3-Diethylglutaric acid], the pKa is 7.42.
Regarding `CC(C)C(CC(=O)O)(CC(=O)O)C(C)C` [3,3-Diisopropylglutaric acid], the pKa is 7.68.
As to `CC(C)(CC(=O)O)CC(=O)O` [3,3-Dimethylglutaric acid], the pKa was 6.45.
On to `CCCC(CCC)(CC(=O)O)CC(=O)O` [3,3-Dipropylglutaric acid], for which the pKa is on record as 7.48.
Regarding `CCC(CC(=O)O)(CC(=O)O)c1ccccc1` [3-Ethyl-3-phenylglutaric acid], the pKa is recorded as 6.95.
For `CC(C)C(C)(CC(=O)O)CC(=O)O` [3-Isopropyl-3-methylglutaric acid], the pKa is on record as 6.92.
For the compound `CCC(C)(CC(=O)O)CC(=O)O` [3-Methyl-3-ethylglutaric acid], the pKa is given as 6.70.
On to `CC(CC(=O)O)(CC(=O)O)c1ccccc1` [3-Methyl-3-phenylglutaric acid], for which the pKa is 6.17.
Take `CC(C)(C)C(C)(CC(=O)O)CC(=O)O` [3-t-Butyl-3-methylglutaric acid]: the pKa is recorded as 7.49.
Turning to `O=C(O)CC1(CC(=O)O)CCCCC1` [Cyclohexyl-1,1-diacetic acid], the pKa was 7.08.
Regarding `O=C(O)CC1(CC(=O)O)CCCC1` [Cyclopentyl-1,1-diacetic acid], the pKa is 6.77.
In the case of `O=C(O)CC(C(=O)O)c1ccccc1` (stereo not drawn) [Phenylsuccinic acid], the pKa was 5.55.
`CC(C)(C(=O)O)C(C)(C)C(=O)O` [Tetramethylsuccinic acid]: the pKa is recorded as 7.41.
For `O=C(O)c1cccc(O)c1` [m-Hydroxvbenzoic acid], the pKa is given as 9.96.
Consider `O=C(O)c1ccc(O)cc1` [p-Hydroxybenzoic acid], for which the pKa is 9.46.

For another data set the following is noted: commercially available products.
As to “2,4,7,9-tetramethyl-5-decyne-4,7-diol-dipolyoxyethylene ethers [Surfynol 465]”, the HLB value is listed as 13.
“2,4,7,9-tetramethyl-5-decyne-4,7-diol-dipolyoxyethylene ethers [Surfynol 485]”: the HLB value is listed as 17.
